pIC50, pKi: −log10 of the molar value. Structures can show the parent of a compound that is named as a salt. Where two headings read alike, the source gives them in different places.
How the values were obtained:
L1210 cells = assay: Cytotoxicity in L1210 cells; assay type: cell-based; settings: Mus musculus
CHO cells = assay: Cytotoxicity in CHO cells (active polyamine transporter); assay type: cell-based, Chinese hamster; settings: for pIC50: Cricetulus griseus, CHO, read-out: CHO IC50; for CHO-MG/CHO IC50 ratio: selectivity for cells with active polyamine transporter
L1210 cells + DFMO = assay: Cytotoxicity in L1210 cells pretreated with DFMO; assay type: cell-based, mouse; settings: for pIC50: Mus musculus; for L1210/(L1210 + DFMO) IC50 ratio: fold more toxic in the presence of DFMO
CHO-MG cells = assay: Cytotoxicity in CHO-MG cells (polyamine-transport deficient); assay type: cell-based, Chinese hamster; settings: Cricetulus griseus, read-out: CHO-MG IC50
polyamine transporter = assay: Ki, affinity for the polyamine transporter in L1210 cells; assay type: binding, mouse
Experimental: Biological Evaluation. Three cell lines were chosen for bioassay. L1210 (mouse leukemia) cells were selected for comparison with the published IC50 and Ki values determined for a variety of polyamine substrates. In this regard both Ki and IC50 values were measured in this line for comparison purposes. Chinese hamster ovary (CHO) cells were chosen along with a mutant cell line (CHO-MG) in order to comment on polyamine transporter affinity and cell selectivity. The CHO-MG cell line is polyamine-transport deficient and was isolated after chronic selection for growth resistance to methylglyoxalbis (guanylhydrazone). For the purposes of this study, the CHO-MG cell line represents cells with limited polyamine transport activity. In contrast, the parent CHO cell line illustrates cell types with active polyamine transport. Comparison of efficacy in these two lines provided an important screen to detect conjugate delivery via the polyamine transporter, PAT. For example, a conjugate with high utilization of the transporter would be very toxic to CHO cells, but less so to CHO-MG cells. Therefore, IC50 determination in these two CHO lines provided a relative ranking of delivery via the PAT.

[1] = L1210 cells, no DFMO, read-out: L1210 IC50
[2] = L1210 cells pretreated with DFMO, read-out: L1210 + DFMO IC50
[3] = polyamine-transport deficient line

| SMILES | pIC50 (L1210 cells; [1]) | pIC50 (CHO cells; active polyamine transporter) | CHO-MG/CHO IC50 ratio (CHO cells) | pIC50 (L1210 cells + DFMO; [2]) | L1210/(L1210 + DFMO) IC50 ratio (L1210 cells + DFMO) | pIC50 (CHO-MG cells; [3]) | pKi (polyamine transporter) | CHO-MG/CHO IC50 ratio (CHO cells; listed as 27c, Trihydrochloride) | CHO-MG/CHO IC50 ratio (CHO cells; trihydrochloride) | pIC50 (L1210 cells; L1210, read-out: L1210 IC50) | pIC50 (CHO cells) | pIC50 (L1210 cells + DFMO; L1210, read-out: L1210 + DFMO IC50) | pIC50 (CHO-MG cells) |
| --- | --- | --- | --- | --- | --- | --- | --- | --- | --- | --- | --- | --- | --- |
| CCCCNCc1c2ccccc2cc2ccccc12 [Compound 35, N^1-Anthracen-9-ylmethyl-butylamine Monohydrochloride] | 4.84 | 4.98 | 1.1 | 4.66 | 0.7 | 4.95 | 4.21 | – | – | – | – | – | – |
| Cl.Cl.Cl.NCCCCNCCCCNCc1cccc2ccccc12 [Compound 27b, N-(4-Amino-butyl)-N′-naphthalen-1-ylmethyl-butane-1,4-diamine Trihydrochloride] | 6.30 | 6.22 | – | 6.37 | 1.1 | < 4.00 | 5.42 | >164 | > 164 | – | – | – | – |
| Cl.Cl.NCCCCNCc1c2ccccc2cc2ccccc12 [Compound 34, N^1-Anthracen-9-ylmethyl-butane-1,4-diamine Dihydrochloride] | 5.20 | 5.11 | 1 | 5.01 | 0.7 | 5.12 | 4.49 | – | – | – | – | – | – |
| Cl.Cl.NCCOCCOCCNCc1c2ccccc2cc2ccccc12 [Compound 33, 2-(2-{2-[(Anthracen-9-ylmethyl)-amino]-ethoxy}-ethoxy)-ethylamine Dihydrochloride] | 4.95 | 4.90 | 1.3 | 4.77 | 0.7 | 4.80 | 4.05 | – | – | – | – | – | – |
| Cl.Cl.Cl.NCC(O)CNCCCCNCc1c2ccccc2cc2ccccc12 (centres unmarked) [Compound 30, 1-Amino-3-{4-[(anthracen-9-ylmethyl)-amino]-butylamino}-propan-2-ol Trihydrochloride] | 5.82 | 5.04 | 1 | 5.64 | 0.7 | 5.02 | 4.90 | – | – | – | – | – | – |
| Cl.Cl.Cl.NC1CCC(NCCCCNCc2c3ccccc3cc3ccccc23)CC1 (centres unmarked) [Compound 31, N-{4-[(Anthracen-9-ylmethyl)-amino]-butyl}-cyclohexane-1,4-diamine Trihydrochloride] | 6.00 | 5.60 | 7 | 6.15 | 1.4 | 4.76 | 5.42 | – | – | – | – | – | – |
| Cl.Cl.Cl.NCCCN(CCCN)Cc1c2ccccc2cc2ccccc12 [Compound 8b, N-(3-Amino-propyl)-N-anthracen-9-ylmethyl-propane-1,3-diamine, trihydrochloride] | 5.74 | 5.72 | 1.8 | 5.85 | 1.3 | 5.47 | 4.48 | – | – | – | – | – | – |
| Cl.Cl.Cl.Cl.NCCCCCN(CCCCN)CCCNCc1c2ccccc2cc2ccccc12 [Compound 13d, N-(4-Amino-butyl)-N-{3-[(anthracen-9-ylmethyl)-amino]-propyl}-pentane-1,5-diamine Tetrahydrochloride] | 4.97 | 4.46 | 1.2 | 5.14 | 1.5 | 4.38 | 7.05 | – | – | – | – | – | – |
| Cl.Cl.Cl.Cl.NCCCCCN(CCCCCNCCCCN)Cc1c2ccccc2cc2ccccc12 [Compound 13i, N-[5-(4-Amino-butylamino)-pentyl]-N-anthracen-9-ylmethyl-pentane-1,5-diamine Tetrahydrochloride] | 5.15 | 5.40 | 1.4 | 5.37 | 1.7 | 5.24 | 7.19 | – | – | – | – | – | – |
| Cl.Cl.NCCCCCCCCNCc1c2ccccc2cc2ccccc12 [Compound 32, N^1-Anthracen-9-ylmethyl-octane-1,8-diamine Dihydrochloride] | 5.52 | 5.31 | 1 | 5.34 | 0.7 | 5.31 | 4.88 | – | – | – | – | – | – |
| Cl.Cl.Cl.NCCCCNCCCCNCc1ccc2ccc3cccc4ccc1c2c34 [Compound 27d, N-(4-Amino-butyl)-N′-pyren-1-ylmethyl-butane-1,4-diamine Trihydrochloride] | – | – | 34 | – | 1.1 | – | 5.54 | – | – | 6.40 | 6.34 | 6.44 | 4.81 |
| Cl.Cl.Cl.Cl.NCCCCCN(CCCCNCCCCN)Cc1c2ccccc2cc2ccccc12 [Compound 13h, N-[4-(4-Amino-butylamino)-butyl]-N-anthracen-9-ylmethyl-pentane-1,5-diamine Tetrahydrochloride] | 5.14 | 5.00 | – | 5.42 | 1.9 | 4.51 | 7.19 | – | – | – | – | – | – |
| Cl.Cl.Cl.NCCCCN(CCCN)Cc1c2ccccc2cc2ccccc12 [Compound 8d, N-(3-Amino-propyl)-N-anthracen-9-ylmethyl-butane-1,4-diamine, trihydrochloride] | 6.40 | 6.40 | 24 | 6.70 | 2 | 5.02 | 5.21 | – | – | – | – | – | – |
| Cl.Cl.Cl.NCCCCNCCCCNCc1ccccc1 [Compound 27a, N-(4-Amino-butyl)-N′-benzene-1-ylmethyl-butane-1,4-diamine Trihydrochloride] | 4.44 | < 3.00 | – | 3.38 | 0.1 | < 3.00 | 5.35 | – | – | – | – | – | – |
| Cl.Cl.Cl.Cl.NCCCCCN(CCCCNCCCN)Cc1c2ccccc2cc2ccccc12 [Compound 13g, N-[4-(3-Amino-propylamino)-butyl]-N-anthracen-9-ylmethyl-pentane-1,5-diamine Tetrahydrochloride] | 5.19 | 4.74 | 1.9 | 5.68 | 3 | 4.47 | 7.00 | – | – | – | – | – | – |
| Cl.Cl.Cl.NCCCCCN(CCCN)Cc1c2ccccc2cc2ccccc12 [Compound 8f, N-(3-Amino-propyl)-N-anthracen-9-ylmethyl-pentane-1,5-diamine, trihydrochloride] | 5.89 | 5.39 | 2.5 | 6.15 | 1.9 | 5.00 | 5.30 | – | – | – | – | – | – |
| Cl.Cl.Cl.Cl.NCCCCN(CCCCNCCCN)Cc1c2ccccc2cc2ccccc12 [Compound 13e, N-[4-(3-Amino-propylamino)-butyl]-N-anthracen-9-ylmethyl-butane-1,4-diamine Tetrahydrochloride] | 5.37 | 5.40 | 0.7 | 6.22 | 7.2 | 5.55 | 7.13 | – | – | – | – | – | – |
| Cl.Cl.Cl.NCCCCCN(CCCCN)Cc1c2ccccc2cc2ccccc12 [Compound 8g, N-(4-Amino-butyl)-N-anthracen-9-ylmethyl-pentane-1,5-diamine, trihydrochloride] | 6.40 | 5.82 | 38 | 6.52 | 1.3 | 4.24 | 5.77 | – | – | – | – | – | – |

From US7728040B1, “Polyamine conjugates as selective NMDA inhibitors and anti-cancer drugs” (University of Central Florids Research Foundation, Inc., priority 2002, dated 2010)
